According to patent US11000033B2, “Ketone or oxime compound, and herbicide” (NISSAN CHEMICAL CORPORATION, priority 2014, dated 2021):

Legend:
Format in all cases: in vivo
Scirpus juncoides = experiment: Test Example 1: herbicidal activity, application before weed generation in submerged conditions (symbol B); conditions: application herbicide amount 320 g/ha
In short: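 Mixed weed seeds sown in alluvial soil under 4 cm of water, with rice seedlings at the 2.5-leaf stage added. Same-day treatment: emulsion diluted to a set herbicide amount onto the water. Three weeks at 25–30 °C, then graded on a six-step scale.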

Setaria viridis [1] = experiment: Test Example 4: herbicidal effect by soil treatment (symbol G); conditions: application herbicide amount 320 g/ha
In short: (§1)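 Seeds were sown in sterilized diluvial soil, covered with about 1.5 cm of soil, and the soil surface was sprayed with a water-diluted emulsion of the compound at a predetermined rate. Plants grew in a greenhouse at 25° C. to 30° C.; effects were scored visually 3 weeks after application.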

Avena fatua = experiment: Test Example 4: herbicidal effect by soil treatment (symbol I); conditions: application herbicide amount 320 g/ha
In short: as §1

Alopecurus myosuroides [2] = experiment: Test Example 4: herbicidal effect by soil treatment (symbol J); conditions: application herbicide amount 320 g/ha
In short: as §1

Lolium multiflorum Lam. = experiment: Test Example 4: herbicidal effect by soil treatment (symbol K); conditions: application herbicide amount 320 g/ha
In short: as §1

Abutilon theophrasti = experiment: Test Example 4: herbicidal effect by soil treatment (symbol M); conditions: application herbicide amount 320 g/ha
In short: as §1

Amaranthus retroflexus [3] = experiment: Test Example 4: herbicidal effect by soil treatment (symbol N); conditions: application herbicide amount 320 g/ha
In short: as §1

Stellaria media = experiment: Test Example 4: herbicidal effect by soil treatment (symbol P); conditions: application herbicide amount 320 g/ha
In short: as §1

Galium spurium [4] = experiment: Test Example 4: herbicidal effect by soil treatment (symbol Q); conditions: application herbicide amount 320 g/ha
In short: as §1

corn = experiment: Test Example 4: effect on crop by soil treatment (symbol c); conditions: application herbicide amount 320 g/ha
In short: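 Plants are raised in a greenhouse (25° C. to 30° C.) from spot-sown seed, which sits under about 1.5 cm of sterilized diluvial soil in a box shared with weed species.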

soybean [5] = experiment: Test Example 4: effect on crop by soil treatment (symbol d); conditions: application herbicide amount 320 g/ha
In short: (§2)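 Diluvial soil (sterilized) in boxes; seeds placed spot-wise alongside weed species; ~1.5 cm covering soil. Greenhouse, 25–30° C.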

rice = experiment: Test Example 4: effect on crop by soil treatment (symbol b); conditions: application herbicide amount 320 g/ha
In short: as §2

wheat [6] = experiment: Test Example 4: effect on crop by soil treatment (symbol e); conditions: application herbicide amount 320 g/ha
In short: as §2

Digitaria ciliaris = experiment: Test Example 5: herbicidal effect by foliage application, plastic box (symbol F); conditions: 320 g/ha, 3 weeks after application
In short: (§3)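 Herbicide, formulated as an emulsion and diluted in water, is sprayed onto the aerial parts of 14-day seedlings. These were grown at 25° C. to 30° C. in sterilized diluvial soil; effects are graded after 3 weeks.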

Setaria viridis [7] = experiment: Test Example 5: herbicidal effect by foliage application, plastic box (symbol G); conditions: 320 g/ha, 3 weeks after application
In short: as §3

[8] = tested on: Echinochloa crus-galli var. crus-galli; experiment: Test Example 5: herbicidal effect by foliage application, plastic box (symbol H); conditions: 320 g/ha, 3 weeks after application
In short: as §3

Alopecurus myosuroides [9] = experiment: Test Example 5: herbicidal effect by foliage application, plastic box (symbol J); conditions: 320 g/ha, 3 weeks after application
In short: as §3

Amaranthus retroflexus [10] = experiment: Test Example 5: herbicidal effect by foliage application, plastic box (symbol N); conditions: 320 g/ha, 3 weeks after application
In short: as §3

Galium spurium [11] = experiment: Test Example 5: herbicidal effect by foliage application, plastic box (symbol Q); conditions: 320 g/ha, 3 weeks after application
In short: as §3

soybean [12] = experiment: Test Example 5: effect on crop by foliage application, plastic box (symbol d); conditions: 320 g/ha, 3 weeks after application
In short: (§4)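 Greenhouse culture at 25° C. to 30° C. followed spot-like sowing into sterilized diluvial soil, with seed covered by roughly 1.5 cm of soil.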

rice plant = experiment: Test Example 5: effect on crop by foliage application, plastic box (symbol b); conditions: 320 g/ha, 3 weeks after application
In short: as §4

wheat [13] = experiment: Test Example 5: effect on crop by foliage application, plastic box (symbol e); conditions: 320 g/ha, 3 weeks after application
In short: as §4

Row | SMILES | Herbicidal effect grade, B: Scirpus juncoides (Scirpus juncoides) | G: Setaria viridis, herbicidal effect grade (Setaria viridis [1]) | I: Avena fatua, herbicidal effect grade (Avena fatua) | J: Alopecurus myosuroides, herbicidal effect grade (Alopecurus myosuroides [2]) | K: Lolium multiflorum Lam., herbicidal effect grade (Lolium multiflorum Lam.) | M: Abutilon theophrasti, herbicidal effect grade (Abutilon theophrasti) | N: Amaranthus retroflexus, herbicidal effect grade (Amaranthus retroflexus [3]) | P: Stellaria media, herbicidal effect grade (Stellaria media) | Q: Galium spurium, herbicidal effect grade (Galium spurium [4]) | c: corn, effect on crop grade (corn) | d: soybean, effect on crop grade (soybean [5]) | b: directly sowed rice plant, effect on crop grade (rice) | e: wheat, effect on crop grade (wheat [6]) | F: Digitaria ciliaris, herbicidal effect grade (Digitaria ciliaris) | G: Setaria viridis, herbicidal effect grade (Setaria viridis [7]) | H: Echinochloa crus-galli var. crus-galli, herbicidal effect grade [8] | J: Alopecurus myosuroides, herbicidal effect grade (Alopecurus myosuroides [9]) | Q: Galium spurium, herbicidal effect grade (Galium spurium [11]) | d: soybean, effect on crop grade (soybean [12]) | b: directly sowed rice plant, effect on crop grade (rice plant) | other results
1 | CON=C(C)CC1CC(O)=C(c2c(C)cc(-c3ccccn3)cc2C)C1=O (mixture of isomers) [6-051] | 4 (Herbicidal ratio of 70% or higher and lower than 90%) | 5 (Herbicidal ratio of 90% or more (almost completely withered)) | 1 (Herbicidal ratio of 5% or higher and lower than 20%) | 5 (Herbicidal ratio of 90% or more (almost completely withered)) | 5 (Herbicidal ratio of 90% or more (almost completely withered)) | 1 (Herbicidal ratio of 5% or higher and lower than 20%) | 5 (Herbicidal ratio of 90% or more (almost completely withered)) | 2 (Herbicidal ratio of 20% or higher and lower than 40%) | 0 (Herbicidal ratio of 5% or lower (almost no effect)) | 1 (Herbicidal ratio of 5% or higher and lower than 20%) | 1 (Herbicidal ratio of 5% or higher and lower than 20%) | 5 (Herbicidal ratio of 90% or more (almost completely withered)) | 2 (Herbicidal ratio of 20% or higher and lower than 40%) | 5 (Herbicidal ratio of 90% or more (almost completely withered)) | 5 (Herbicidal ratio of 90% or more (almost completely withered)) | 5 (Herbicidal ratio of 90% or more (almost completely withered)) | 5 (Herbicidal ratio of 90% or more (almost completely withered)) | 4 (Herbicidal ratio of 70% or higher and lower than 90%) | 1 (Herbicidal ratio of 5% or higher and lower than 20%) | 5 (Herbicidal ratio of 90% or more (almost completely withered)) | N: Amaranthus retroflexus, herbicidal effect grade (Amaranthus retroflexus [10]): 3 (Herbicidal ratio of 40% or higher and lower than 70%); e: wheat, effect on crop grade (wheat [13]): 4 (Herbicidal ratio of 70% or higher and lower than 90%)
2 | CC(CC1CC(O)=C(c2c(C)cc(C)cc2C)C1=O)=NOCc1ccccc1 (stereo not shown) [1-020] | 5 (Herbicidal ratio of 90% or more (almost completely withered)) | – | – | – | – | – | – | – | – | – | – | – | – | 5 (Herbicidal ratio of 90% or more (almost completely withered)) | 5 (Herbicidal ratio of 90% or more (almost completely withered)) | 5 (Herbicidal ratio of 90% or more (almost completely withered)) | 5 (Herbicidal ratio of 90% or more (almost completely withered)) | 4 (Herbicidal ratio of 70% or higher and lower than 90%) | 0 (Herbicidal ratio of 5% or lower (almost no effect)) | 5 (Herbicidal ratio of 90% or more (almost completely withered)) | G (Setaria viridis) herbicidal effect grade (Setaria viridis [1]): 5 (Herbicidal ratio of 90% or more (almost completely withered)); I (Avena fatua) herbicidal effect grade (Avena fatua): 4 (Herbicidal ratio of 70% or higher and lower than 90%); J (Alopecurus myosuroides) herbicidal effect grade (Alopecurus myosuroides [2]): 5 (Herbicidal ratio of 90% or more (almost completely withered)); K (Lolium multiflorum Lam.) herbicidal effect grade (Lolium multiflorum Lam.): 5 (Herbicidal ratio of 90% or more (almost completely withered)); M (Abutilon theophrasti) herbicidal effect grade (Abutilon theophrasti): 3 (Herbicidal ratio of 40% or higher and lower than 70%); N (Amaranthus retroflexus) herbicidal effect grade (Amaranthus retroflexus [3]): 0 (Herbicidal ratio of 5% or lower (almost no effect)); P (Stellaria media) herbicidal effect grade (Stellaria media): 0 (Herbicidal ratio of 5% or lower (almost no effect)); Q (Galium spurium) herbicidal effect grade (Galium spurium [4]): 0 (Herbicidal ratio of 5% or lower (almost no effect)); c (corn) effect on crop grade (corn): 1 (Herbicidal ratio of 5% or higher and lower than 20%); d (soybean) effect on crop grade (soybean [5]): 0 (Herbicidal ratio of 5% or lower (almost no effect)); b (directly sowed rice plant) effect on crop grade (rice): 5 (Herbicidal ratio of 90% or more (almost completely withered)); e (wheat) effect on crop grade (wheat [6]): 2 (Herbicidal ratio of 20% or higher and lower than 40%); e: wheat, effect on crop grade (wheat [13]): 5 (Herbicidal ratio of 90% or more (almost completely withered))
3 | CON=C(C)CC1CC(OC(=O)COc2ccccc2)=C(c2c(C)cc(-c3ccc(Cl)cc3)cc2OC)C1=O (stereo not shown) [6-079] | 0 (Herbicidal ratio of 5% or lower (almost no effect)) | 5 (Herbicidal ratio of 90% or more (almost completely withered)) | 0 (Herbicidal ratio of 5% or lower (almost no effect)) | 3 (Herbicidal ratio of 40% or higher and lower than 70%) | 5 (Herbicidal ratio of 90% or more (almost completely withered)) | 1 (Herbicidal ratio of 5% or higher and lower than 20%) | 4 (Herbicidal ratio of 70% or higher and lower than 90%) | 0 (Herbicidal ratio of 5% or lower (almost no effect)) | 0 (Herbicidal ratio of 5% or lower (almost no effect)) | 0 (Herbicidal ratio of 5% or lower (almost no effect)) | 0 (Herbicidal ratio of 5% or lower (almost no effect)) | 3 (Herbicidal ratio of 40% or higher and lower than 70%) | 3 (Herbicidal ratio of 40% or higher and lower than 70%) | – | – | – | – | – | – | – | F: Digitaria ciliaris, herbicidal effect (criteria of Test Example 1) (Digitaria ciliaris): 5 (Herbicidal ratio of 90% or more (almost completely withered)); G: Setaria viridis, herbicidal effect (criteria of Test Example 1) (Setaria viridis [7]): 5 (Herbicidal ratio of 90% or more (almost completely withered)); H: Echinochloa crus-galli var. crus-galli, herbicidal effect (criteria of Test Example 1) [8]: 5 (Herbicidal ratio of 90% or more (almost completely withered)); J: Alopecurus myosuroides, herbicidal effect (criteria of Test Example 1) (Alopecurus myosuroides [9]): 5 (Herbicidal ratio of 90% or more (almost completely withered)); N: Amaranthus retroflexus, herbicidal effect (criteria of Test Example 1) (Amaranthus retroflexus [10]): 0 (Herbicidal ratio of 5% or lower (almost no effect)); Q: Galium spurium, herbicidal effect (criteria of Test Example 1) (Galium spurium [11]): 4 (Herbicidal ratio of 70% or higher and lower than 90%); b: directly sowed rice plant, effect on crop (criteria of Test Example 1) (rice plant): 5 (Herbicidal ratio of 90% or more (almost completely withered)); e: wheat, effect on crop (criteria of Test Example 1) (wheat [13]): 5 (Herbicidal ratio of 90% or more (almost completely withered))
